Publication PMC9599461, “Stereoselectivity in the Membrane Transport of Phenylethylamine Derivatives by Human Monoamine Transporters and Organic Cation Transporters 1, 2, and 3” (Biomolecules, 2022)
Like-named read-outs stand apart in the source and are kept apart here. Marks after values point to notes of the source that are not given here.

Legend:
OCT3 = target: T1, OCT3 (Homo sapiens, UniProt O75751); assay: Stereoselective uptake into OCT3-overexpressing HEK293 cells; conditions: for Vmax ± SEM / Km: HEK293 cells overexpressing human OCT3, racemic substrate, two minutes; for Vmax ± SEM: net uptake; for Clint ± SEM: quotient of vmax over Km; for Stereoselectivity Vmax: given as for (R) or for 1; for Km: read-out: Km ± SEM, net uptake minus empty vector control;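 as to all read-outs here: intracellular accumulation in HEK293 cells measured by chiral HPLC-MS/MS after a 2 min substrate exposure at 37 °C, uptake normalized to total protein (bicinchoninic acid assay)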
T1 sequence (O75751 1-556): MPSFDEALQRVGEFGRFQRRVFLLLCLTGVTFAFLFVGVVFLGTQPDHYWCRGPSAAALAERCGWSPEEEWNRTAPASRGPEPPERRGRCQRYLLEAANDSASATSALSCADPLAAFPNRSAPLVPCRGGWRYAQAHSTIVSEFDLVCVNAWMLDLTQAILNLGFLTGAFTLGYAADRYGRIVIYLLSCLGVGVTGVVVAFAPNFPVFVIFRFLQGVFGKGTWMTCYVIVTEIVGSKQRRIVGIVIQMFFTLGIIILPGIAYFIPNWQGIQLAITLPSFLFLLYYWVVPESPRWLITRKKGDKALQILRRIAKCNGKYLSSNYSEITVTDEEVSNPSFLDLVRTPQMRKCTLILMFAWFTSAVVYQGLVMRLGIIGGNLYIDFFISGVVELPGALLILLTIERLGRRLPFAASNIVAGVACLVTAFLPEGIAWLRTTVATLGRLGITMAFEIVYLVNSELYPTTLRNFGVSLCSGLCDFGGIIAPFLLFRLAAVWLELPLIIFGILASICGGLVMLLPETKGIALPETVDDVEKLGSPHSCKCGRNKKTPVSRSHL
Description: (§1) All transport experiments were carried out in HEK293 cells stably overexpressing human MATs or OCTs. […] All cells were regularly cultivated in DMEM supplemented with 10% (v/v) FCS, penicillin (100 U/mL) and streptomycin (100 μg/mL)and kept in culture for no longer than 30 passages.
(§2) For the uptake experiments, 300,000 cells were plated in poly-D-lysine precoated 24-well plates 48 h ahead of the transport experiment. On the day of experiment, cells were initially washed once with 37 °C pre-warmed HBSS+ (Hanks buffered salt solution supplemented with 10 mM HEPES) and subsequently incubated with the substrates dissolved in pre-warmed HBSS+ for exactly two minutes. Incubation was stopped by adding ice-cold HBSS+ followed by two washing steps. After this, cells were lysed with 80% acetonitrile containing 10 ng/mL milnacipran as internal standard for high-performance liquid chromatography coupled to tandem mass spectrometry (HPLC-MS/MS) analysis. For every experiment, two additional wells per cell line were lysed using RIPA buffer for protein quantification. Total protein was quantified using the bicinchoninic acid assay [42]. This was later used for normalization of the uptake data.
(§3) Intracellularly accumulated test substances were quantified by HPLC-MS/MS analysis using a Shimadzu Nexera HPLC system with a SIL-30AC autosampler, a CTO-20AC column oven, a LC-30AD pump, and a CBM-20A controller (Shimadzu, Kyoto, Japan). Stereoselective chromatography was carried out on a [sequence] CBH HPLC column (100 × 3 mm inner dimension with 5 μM particle size; Sigma-Aldrich, Darmstadt, Germany) with a corresponding 10 × 3 mm guard column. Reversed phased chromatography was carried out using an ammonium acetate (NH4Ac) buffered aqueous mobile phase with isopropyl alcohol (IPA) as organic solvent. […] The order of elution of the enantiomers was obtained from available reference literature [43] or by applying enantiopure reference compounds to the chiral HPLC. […] Given the structural similarity of the investigated substances and the fact that separation was performed on the same column with almost identical mobile phases, we assume that this order of elution for our compound set is always the (R)- before the (S)-enantiomer.
(§4) Detection was performed with an API 4000 tandem mass spectrometer (AB SCIEX, Darmstadt, Germany) operating in multiple-reaction-monitoring mode. Quantification was performed using the Analyst 1.6.2 software (AB SCIEX, Darmstadt, Germany) and quantified by comparison to standard curves with known concentrations.
(§5) All uptake data were normalized to protein content to account for variation in the number of seeded sells. Transporter-mediated net uptake was calculated by subtracting uptake into empty vector-transfected control cells from uptake into transporter-transfected cells. Kinetic parameters were then determined after non-linear regression following the Michaelis–Menten equation (v = vmax × [S]/(Km + [S])) using GraphPad Prism (Version 5.01 for Windows, GraphPad Software, La Jolla, CA, USA). Vmax refers to the maximum transport velocity and Km is defined as the substance concentration required to reach half of vmax. The intrinsic clearance Clint was calculated as the quotient of vmax over Km.

OCT2 [1] = target: T2, OCT2 (Homo sapiens, UniProt O15244, S270A); assay: Stereoselective uptake into OCT2 (wild-type)-overexpressing HEK293 cells; conditions: OCT2, ratio between enantiomers; for Stereoselectivity Km: given as for (R) or for 1 (first-eluting)
T2 sequence (O15244 1-555 S270A): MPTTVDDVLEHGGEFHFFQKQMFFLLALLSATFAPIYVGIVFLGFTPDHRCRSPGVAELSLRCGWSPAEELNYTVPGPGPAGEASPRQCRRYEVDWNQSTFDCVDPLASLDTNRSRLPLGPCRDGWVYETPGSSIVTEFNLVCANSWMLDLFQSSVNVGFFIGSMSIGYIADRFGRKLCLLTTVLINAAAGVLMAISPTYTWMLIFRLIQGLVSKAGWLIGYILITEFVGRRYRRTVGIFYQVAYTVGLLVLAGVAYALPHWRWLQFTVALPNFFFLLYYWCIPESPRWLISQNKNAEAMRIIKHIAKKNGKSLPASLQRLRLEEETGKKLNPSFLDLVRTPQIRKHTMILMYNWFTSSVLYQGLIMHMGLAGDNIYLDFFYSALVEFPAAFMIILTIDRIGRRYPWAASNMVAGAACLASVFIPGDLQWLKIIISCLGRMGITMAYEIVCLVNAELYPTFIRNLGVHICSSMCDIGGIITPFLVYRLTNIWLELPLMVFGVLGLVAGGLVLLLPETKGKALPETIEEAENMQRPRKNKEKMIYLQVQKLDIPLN

OCT2 [2] = target: T3, OCT2 (Homo sapiens, UniProt O15244); assay: as above; conditions: for Vmax ± SEM / Km: HEK293 cells overexpressing human OCT2, racemic substrate, two minutes; for Vmax ± SEM: net uptake; for Clint ± SEM: OCT2, quotient of vmax over Km; for Km: read-out: Km ± SEM, net uptake minus empty vector control
T3 sequence (O15244 1-555 S270A): T2 sequence (O15244 1-555 S270A)

OCT2 A270S variant = assay: Stereoselective uptake into OCT2 A270S variant-overexpressing HEK293 cells; conditions: 100 μM racemic substance, two minutes; for Transporter selectivity: OCT2 wild-type versus A270S, given as for WT;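 as to all read-outs here: uptake into HEK293 cells stably overexpressing human OCT2 variants, intracellular enantiomers quantified by chiral HPLC-MS/MS and normalized to total protein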
Description: as §1, §2
Intracellularly accumulated test substances were quantified by HPLC-MS/MS analysis using a Shimadzu Nexera HPLC system with a SIL-30AC autosampler, a CTO-20AC column oven, a LC-30AD pump, and a CBM-20A controller (Shimadzu, Kyoto, Japan). Stereoselective chromatography was carried out on a [sequence] CBH HPLC column (100 × 3 mm inner dimension with 5 μM particle size; Sigma-Aldrich, Darmstadt, Germany) with a corresponding 10 × 3 mm guard column. Reversed phased chromatography was carried out using an ammonium acetate (NH4Ac) buffered aqueous mobile phase with isopropyl alcohol (IPA) as organic solvent. […] The order of elution of the enantiomers was obtained from available reference literature [43] or by applying enantiopure reference compounds to the chiral HPLC. […] However, in every other case where the order of elution was available, the (R)-enantiomer eluted first. Given the structural similarity of the investigated substances and the fact that separation was performed on the same column with almost identical mobile phases, we assume that this order of elution for our compound set is always the (R)- before the (S)-enantiomer.
as §4, §5
HEK293 cells stably overexpressing wild-type or mutant OCT2 were incubated with 100 μM racemic substance for two minutes.

DAT = DAT (Homo sapiens, UniProt Q01959); assay: Stereoselective uptake into DAT-overexpressing HEK293 cells;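 also: intracellular accumulation measured by chiral HPLC-MS/MS in stably transfected HEK293 cells, normalized to total protein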
NET = NET (Homo sapiens, UniProt P23975); assay: Stereoselective uptake into NET-overexpressing HEK293 cells; conditions: for Vmax ± SEM / Km: HEK293 cells overexpressing human NET, racemic substrate, two minutes; for Vmax ± SEM: net uptake; for Clint ± SEM / Stereoselectivity ClInt / Stereoselectivity Vmax / Stereoselectivity Km: NET; for Clint ± SEM: quotient of vmax over Km; for Stereoselectivity ClInt / Stereoselectivity Vmax / Stereoselectivity Km: ratio between enantiomers; for Stereoselectivity ClInt / Stereoselectivity Vmax: given as for (S) or for 2; for Stereoselectivity Km: given as for (S) or for 2 (second-eluting); for Km: read-out: Km ± SEM, net uptake minus empty vector control;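 as to all read-outs here: intracellular enantiomers quantified in cell lysates by chiral HPLC-MS/MS after a 2 min substrate incubation, with uptake normalized to total cellular protein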
SERT [3] = target: T4, SERT (Homo sapiens, UniProt P31645);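 also: uptake into HEK293 cells stably expressing human SERT over 2 min, enantiomers measured in cell lysate by chiral HPLC-MS/MS, normalized to total protein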
Description: as §1, §2
(§6) Intracellularly accumulated test substances were quantified by HPLC-MS/MS analysis using a Shimadzu Nexera HPLC system with a SIL-30AC autosampler, a CTO-20AC column oven, a LC-30AD pump, and a CBM-20A controller (Shimadzu, Kyoto, Japan). […] CBH HPLC column (100 × 3 mm inner dimension with 5 μM particle size; Sigma-Aldrich, Darmstadt, Germany) with a corresponding 10 × 3 mm guard column. Reversed phased chromatography was carried out using an ammonium acetate (NH4Ac) buffered aqueous mobile phase with isopropyl alcohol (IPA) as organic solvent. […] The order of elution of the enantiomers was obtained from available reference literature [43] or by applying enantiopure reference compounds to the chiral HPLC.
as §4
(§7) All uptake data were normalized to protein content to account for variation in the number of seeded sells. Transporter-mediated net uptake was calculated by subtracting uptake into empty vector-transfected control cells from uptake into transporter-transfected cells. […] Vmax refers to the maximum transport velocity and Km is defined as the substance concentration required to reach half of vmax. The intrinsic clearance Clint was calculated as the quotient of vmax over Km.

OCT1 = target: T5, OCT1 (Homo sapiens, UniProt O15245); assay: Stereoselective uptake into OCT1-overexpressing HEK293 cells; conditions: for Vmax ± SEM / Km: HEK293 cells overexpressing human OCT1, racemic substrate, two minutes; for Vmax ± SEM: net uptake; for Clint ± SEM: quotient of vmax over Km; for Km: read-out: Km ± SEM, net uptake minus empty vector control;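 as to all read-outs here: enantiomers quantified inside cells by chiral HPLC-MS/MS, uptake normalized to total protein from bicinchoninic acid assay, substrates applied in HBSS+ buffer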
T5 sequence (O15245 1-554): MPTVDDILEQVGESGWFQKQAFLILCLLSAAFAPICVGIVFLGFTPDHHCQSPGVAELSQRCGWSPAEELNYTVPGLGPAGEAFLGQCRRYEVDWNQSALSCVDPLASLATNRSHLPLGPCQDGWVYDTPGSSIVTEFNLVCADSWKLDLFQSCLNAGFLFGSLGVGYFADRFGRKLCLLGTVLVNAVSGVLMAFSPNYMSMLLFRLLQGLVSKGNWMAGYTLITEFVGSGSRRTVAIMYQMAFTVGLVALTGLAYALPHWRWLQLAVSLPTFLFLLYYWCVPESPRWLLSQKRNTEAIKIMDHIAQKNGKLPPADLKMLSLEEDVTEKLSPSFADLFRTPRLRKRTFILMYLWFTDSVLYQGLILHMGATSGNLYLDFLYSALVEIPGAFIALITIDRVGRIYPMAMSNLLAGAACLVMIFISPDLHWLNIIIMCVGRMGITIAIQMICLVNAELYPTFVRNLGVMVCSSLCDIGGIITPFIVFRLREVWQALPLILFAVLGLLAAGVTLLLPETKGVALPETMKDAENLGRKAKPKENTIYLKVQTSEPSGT
Description: as §1, §2, §3, §4, §5

SERT [4] = target: T4, SERT; assay: Stereoselective uptake into SERT-overexpressing HEK293 cells; conditions: for Vmax ± SEM / Km: HEK293 cells overexpressing human SERT, racemic substrate, two minutes; for Vmax ± SEM: net uptake; for Clint ± SEM: SERT, quotient of vmax over Km; for Km: read-out: Km ± SEM, net uptake minus empty vector control;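 as to all read-outs here: uptake into HEK293 cells stably expressing human SERT over 2 min, enantiomers measured in cell lysate by chiral HPLC-MS/MS, normalized to total protein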
Description: as §1, §2, §6, §4, §7

[5] = OCT3, ratio between enantiomers
[6] = DAT, ratio between enantiomers, given as for (S) or for 2
[7] = OCT1, ratio between enantiomers, given as for (S) or for 2

NET, sequence (P23975 whole entry): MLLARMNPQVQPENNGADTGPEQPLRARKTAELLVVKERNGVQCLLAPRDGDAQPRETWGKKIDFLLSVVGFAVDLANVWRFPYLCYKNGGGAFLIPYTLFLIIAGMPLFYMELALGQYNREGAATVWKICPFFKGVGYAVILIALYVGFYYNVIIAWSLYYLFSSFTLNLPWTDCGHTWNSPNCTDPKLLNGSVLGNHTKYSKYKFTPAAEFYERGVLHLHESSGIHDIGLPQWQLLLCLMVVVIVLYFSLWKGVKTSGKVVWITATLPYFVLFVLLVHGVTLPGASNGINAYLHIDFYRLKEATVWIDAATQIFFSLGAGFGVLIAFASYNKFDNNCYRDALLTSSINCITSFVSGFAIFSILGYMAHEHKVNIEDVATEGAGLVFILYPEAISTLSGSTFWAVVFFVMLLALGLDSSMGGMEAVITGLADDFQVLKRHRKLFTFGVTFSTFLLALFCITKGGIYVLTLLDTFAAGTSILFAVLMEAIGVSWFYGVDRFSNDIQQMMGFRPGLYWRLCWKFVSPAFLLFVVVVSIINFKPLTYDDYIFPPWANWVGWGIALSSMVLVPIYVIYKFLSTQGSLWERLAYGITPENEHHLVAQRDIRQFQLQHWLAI
T4 sequence (P31645 whole entry): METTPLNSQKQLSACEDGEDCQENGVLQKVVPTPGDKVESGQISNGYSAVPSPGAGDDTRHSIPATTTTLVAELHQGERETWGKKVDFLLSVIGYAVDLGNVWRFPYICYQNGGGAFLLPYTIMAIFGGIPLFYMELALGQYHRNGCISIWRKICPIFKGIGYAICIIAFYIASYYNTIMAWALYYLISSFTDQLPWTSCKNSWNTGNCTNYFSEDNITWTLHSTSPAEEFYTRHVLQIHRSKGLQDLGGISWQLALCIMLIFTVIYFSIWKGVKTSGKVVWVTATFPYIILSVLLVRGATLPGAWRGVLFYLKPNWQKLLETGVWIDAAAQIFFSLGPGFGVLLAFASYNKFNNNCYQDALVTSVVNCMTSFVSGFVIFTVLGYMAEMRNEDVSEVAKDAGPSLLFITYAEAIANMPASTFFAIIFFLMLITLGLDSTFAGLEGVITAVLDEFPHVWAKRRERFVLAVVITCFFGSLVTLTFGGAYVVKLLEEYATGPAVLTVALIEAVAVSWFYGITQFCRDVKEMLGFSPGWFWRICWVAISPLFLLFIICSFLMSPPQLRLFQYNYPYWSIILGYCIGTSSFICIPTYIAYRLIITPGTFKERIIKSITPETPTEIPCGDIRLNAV
DAT, sequence (Q01959 whole entry): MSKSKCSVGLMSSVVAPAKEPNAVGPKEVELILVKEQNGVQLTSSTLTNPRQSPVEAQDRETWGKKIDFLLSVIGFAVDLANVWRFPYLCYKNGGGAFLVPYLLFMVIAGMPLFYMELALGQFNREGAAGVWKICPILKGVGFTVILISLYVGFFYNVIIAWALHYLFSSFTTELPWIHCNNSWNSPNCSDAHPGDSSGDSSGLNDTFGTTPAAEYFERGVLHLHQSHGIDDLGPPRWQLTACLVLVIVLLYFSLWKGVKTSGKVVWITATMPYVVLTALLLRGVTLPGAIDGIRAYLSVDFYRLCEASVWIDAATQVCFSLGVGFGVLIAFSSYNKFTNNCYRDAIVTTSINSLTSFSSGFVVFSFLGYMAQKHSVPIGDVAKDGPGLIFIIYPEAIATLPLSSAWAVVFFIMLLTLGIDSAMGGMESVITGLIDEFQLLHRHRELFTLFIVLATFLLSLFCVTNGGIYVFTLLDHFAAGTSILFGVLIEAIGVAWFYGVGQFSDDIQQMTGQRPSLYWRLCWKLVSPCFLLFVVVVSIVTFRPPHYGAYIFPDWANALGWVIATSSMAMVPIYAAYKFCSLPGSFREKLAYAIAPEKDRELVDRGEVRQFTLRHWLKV

Structure (SMILES)	Vmax ± SEM (OCT3)	Clint ± SEM (OCT3; OCT3)	Stereoselectivity Vmax (OCT3; [5])	Km (OCT3)	Stereoselectivity Km (OCT2 [1])	Vmax ± SEM (OCT2 [2])	Clint ± SEM (OCT2 [2])	Km (OCT2 [2])	Vmax ± SEM (NET)	Clint ± SEM (NET)	Stereoselectivity ClInt (NET)	Stereoselectivity Vmax (NET)	Stereoselectivity Km (NET)	Km (NET)	Stereoselectivity ClInt (SERT [3])	Vmax ± SEM (OCT1)	Clint ± SEM (OCT1; OCT1)	Km (OCT1)	Stereoselectivity Km (SERT [4])	Stereoselectivity Vmax (SERT [4])	further results
C[C@@H]1NCCc2cc(O)c(O)cc21 [Salsolinol-1, Salsolinol]	705 pmol × mg Protein^−1 × min^−1	3.80 mL × g Protein^−1 × min^−1	1.01 fold	186 µM	1.04 fold	9083 pmol × mg Protein^−1 × min^−1	40.9 mL × g Protein^−1 × min^−1	222 µM	112 pmol × mg Protein^−1 × min^−1	1.24 mL × g Protein^−1 × min^−1	1.19 fold	1.35 fold	1.13 fold	90.1 µM	2.48 fold	1450 pmol × mg Protein^−1 × min^−1	10.9 mL × g Protein^−1 × min^−1	133 µM	1.85 fold	1.34 fold	Stereoselectivity ClInt (OCT3): 1.21 fold; Stereoselectivity Km (OCT3; OCT3, ratio between enantiomers, given as for (S) or for 2 (second-eluting)): 1.20 fold; Stereoselectivity ClInt (OCT2 [1]; given as for (S) or for 2): 1.05 fold; Stereoselectivity Vmax (OCT2 [1]; given as for (S) or for 2): 1.01 fold; Net uptake by A270S variant in comparison to the wild-type (OCT2 A270S variant): 66%; Transporter selectivity (OCT2 A270S variant; listed as (R)-Salsolinol): 1.50 fold; Saturable net uptake (DAT; DAT, result in words): No saturable net uptake; Stereoselectivity ClInt (OCT1; OCT1, ratio between enantiomers, given as for (R) or for 1 (also 1.00-fold for 1/2)): 1.00 fold; Vmax ± SEM (SERT [4]): 229 pmol × mg Protein^−1 × min^−1; Clint ± SEM (SERT [4]): 1.77 mL × g Protein^−1 × min^−1; Km (SERT [4]): 129 µM
NC[C@@H](O)c1ccc(O)c(O)c1 [(S)-Norepinephrine]	3662 ± 299 pmol × mg Protein^−1 × min^−1	7.05 ± 2.73 mL × g Protein^−1 × min^−1	1.01-fold for (R)	519 ± 158 µM	1.32-fold for (R)	3042 ± 258 pmol × mg Protein^−1 × min^−1	2.32 ± 0.71 mL × g Protein^−1 × min^−1	1310 ± 291 µM	362 ± 20 pmol × mg Protein^−1 × min^−1	118.7 ± 46.0 mL × g Protein^−1 × min^−1	1.05-fold for (S)	1.38-fold for (S) **	1.32-fold for (S)	3.05 ± 1.01 µM	1.78-fold for (R)	1766 ± 258 pmol × mg Protein^−1 × min^−1	0.48 ± 0.20 mL × g Protein^−1 × min^−1	3710 ± 1010 µM	1.01-fold for (R)	1.79-fold for (R) **	Stereoselectivity Km (OCT3; OCT3, ratio between enantiomers, given as for (R) or for 1 (first-eluting)): 1.07-fold for (R); Stereoselectivity ClInt (OCT3; OCT3, ratio between enantiomers, given as for (S) or for 2): 1.07-fold for (S); Stereoselectivity ClInt (OCT2 [1]; given as for (R) or for 1): 1.64-fold for (R); Stereoselectivity Vmax (OCT2 [1]; given as for (R) or for 1): 2.17-fold for (R) **; Transporter selectivity (OCT2 A270S variant): 1.22 fold; Clint ± SEM (DAT; DAT, quotient of vmax over Km): 155.5 ± 21.4 mL × g Protein^−1 × min^−1; Stereoselectivity ClInt (DAT; [6]): 1.12-fold for (S); Stereoselectivity Vmax (DAT; [6]): 1.47-fold for (S) ***; Stereoselectivity Km (DAT; DAT, ratio between enantiomers, given as for (S) or for 2 (second-eluting)): 1.31-fold for (S); Vmax ± SEM (DAT; HEK293 cells overexpressing human DAT, racemic substrate, two minutes, net uptake): 4524 ± 122 pmol × mg Protein^−1 × min^−1; Km (DAT; read-out: Km ± SEM, HEK293 cells overexpressing human DAT, racemic substrate, two minutes, net uptake minus empty vector control): 29.1 ± 3.2 µM; Stereoselectivity ClInt (OCT1; [7]): 1.06-fold for (S); Stereoselectivity Vmax (OCT1; [7]): 1.16-fold for (S); Stereoselectivity Km (OCT1; OCT1, ratio between enantiomers, given as for (S) or for 2 (second-eluting)): 1.09-fold for (S); Vmax ± SEM (SERT [4]): 405 ± 42 pmol × mg Protein^−1 × min^−1; Clint ± SEM (SERT [4]): 2.31 ± 0.93 mL × g Protein^−1 × min^−1; Km (SERT [4]): 175 ± 52.2 µM
